According to patent publication US10322112B2, “Compound combinations for attenuation of bacterial virulence” (priority 2016, dated 2019):

Molecular target: QscR (Pseudomonas aeruginosa, UniProt G3XD77)
Settings: compounds at 100 mm; E. coli reporter strain JLD271/pJN105Q/pSC11-Q; 100 mm OdDHL = 100%; error ±10%
Excerpt: Construction of pSC11-Q: A 348 bp fragment spanning the upstream region of PA1897 (¢304 to +43 relative to the PA1897 translationalstart codon) was amplified from plasmid pJL101*by using primers 5′-GAATAT GGATCC TCTCTC CGCAGA TACCTG-3′ (BamHI site underlined) SEQ ID NO:5 and 5′-GCTATT GAATTC TGAAGA TGAATA GCGCCAC-3′ (EcoRI site underlined) SEQ ID NO:6. The PCR-generated fragment was digested with EcoRI and BamHI and subsequently ligated into EcoRI/BamHI-digested pPROBE-KT to generate pPROBE-KQ2. […] CGCC-3′ (BamHI site underlined) SEQ ID NO:8. The PCR-generated fragment was digested with SalI and BamHI and subsequently ligated into SalI/BamHI-digested pSC11 to generate pSC11-Q.
E. coli reporter gene assays: Primary assays for RhlR, LasR, and QscR activity in E. coli JLD271 reporter (beta-galactosidase) strains were performed as reported by Welsh et al. 2015, with the following modifications:
For all primary and dose-response antagonism assays, the concentration of native ligand utilized was approximately equal to its EC50 value in each bacterial reporter strain. For RhlR, LasR, and QscR primary antagonism assays, synthetic ligand (100 mm) was screened against BHL (10 mm), OdDHL (2 nm), and OdDHL (15 nm), respectively. For RhlR, LasR, and QscR primary agonism assays, synthetic compound (100 mm) was screened alongside and compared to the natural ligand (900 mm BHL or 100 mm OdDHL) for the receptor. As part of the beta-galactosidase assay protocol, plates to which CPRG substrate had been added were incubated at either 25° C. (LasR assay) or 30° C. (RhlR and QscR assays) until positive control wells developed a deep red color (10 min for LasR, 30 min for RhlR, and 60 min for QscR). Dose-response reporter gene assays were performed according to these protocols by using varying concentrations of compound.

Chain of QscR (G3XD77 entry or part of it): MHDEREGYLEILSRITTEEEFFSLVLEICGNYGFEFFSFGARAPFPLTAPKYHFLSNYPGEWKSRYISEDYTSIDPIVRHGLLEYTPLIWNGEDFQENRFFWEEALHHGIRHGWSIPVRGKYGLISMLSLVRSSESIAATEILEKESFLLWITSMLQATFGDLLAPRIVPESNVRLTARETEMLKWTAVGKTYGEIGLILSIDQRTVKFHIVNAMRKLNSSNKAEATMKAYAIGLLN

## O=C(N[C@H]1CCOC1=O)C1CCCC1 [compound 3]
  Activation [%] QscR: 4%
